Measured values as given in patent publication US20260355251A1, “COMPOSITION FOR PROMOTING HAIR GROWTH” (Idea Therapeutics SL, priority 2023, published 2026).

What was measured:
AGA Model = test: Macroscopic blind assessment of hair growth in DHT-induced AGA model mice (Example 5); type: in vivo, C57BL6 mice (males); details: male mice, day 21, intradermal on day 0 and day 3, ATP 100 μM
Method: The compositions for promoting hair growth of the invention were tested in vivo in mice, according to the following procedure.
A total of 45 6-week-old C57BL6 mice (males) from Charles River Laboratories were used.
The animals were acclimatized for 6 days, and they were administered 1 mg of DHT (5α-androstan-17β-ol-3-one, Sigma) in 100 μL of 50% DMSO (Merck)/50% Isotonic Saline Serum (Fresenius Kabi) subcutaneously for […] (5 days a week), resulting 19 administrations, instead of 20, because the dose was omitted on day 21, when the final assessment of hair growth took place. The administration of DHT began at day-4 of the testing.
The concentration of ATP in Groups 3, 4, 5 and 6 was 100 μM.
After 4 days of administration of the DHT solution (day 0), the target area was depilated using an electric shaver in the area delimited by a template. Subsequently, depilatory cream was applied with the aim of uniformizing the beginning of the anagen phase in all mice. This procedure was performed using inhalation sedation with 2% Isoflurane, maintaining the body temperature of the animals with an electric blanket and an infrared lamp. (FIG. 1). […]

hair follicle cultures = details: between ATP and adenosine; cited from earlier work
androgen receptors = details: hair follicles; cited from earlier work

For `Nc1ncnc2c1ncn2[C@@H]1O[C@H](COP(=O)(O)OP(=O)(O)OP(=O)(O)O)[C@@H](O)[C@H]1O` [ATP non-encapsulated, adenosine triphosphate], the “hair growth level: Intense (% of mice)” value (AGA Model; ADSCs high 4 × 10^6, low 1 × 10^6) was 80% and the “hair growth level: Moderate (% of mice)” value (AGA Model; ADSCs high 4 × 10^6) was 20%.
In the case of `Nc1ncnc2c1ncn2[C@@H]1O[C@H](COP(=O)(O)OP(=O)(O)OP(=O)(O)O)[C@@H](O)[C@H]1O` [ATP, adenosine triphosphate], the “synergistic action on hair growth of hair follicle cultures” value (hair follicle cultures) is given as “synergistic action”.
For `C[C@]12CCC(=O)C[C@@H]1CC[C@@H]1[C@@H]2CC[C@]2(C)[C@@H](O)CC[C@@H]12` [DHT, 5α-androstan-17β-ol-3-one], the “affinity towards androgen receptors” value (androgen receptors) is listed as “higher affinity towards androgen receptors in the hair follicles”.
For `Nc1ncnc2c1ncn2[C@@H]1O[C@H](CO)[C@@H](O)[C@H]1O` [adenosine], the “synergistic action on hair growth of hair follicle cultures” value (hair follicle cultures) is listed as “synergistic action”.
